Holding throughout (format): cell-based
One test deals with U937 cells. Briefly: U937 cell growth inhibition (direct antitumor action, CellTiterGlo). The note with it: for IC50: U937 cell growth inhibition, 4 days culture; for direct antitumor activity (in words): U937 growth inhibition. Here is the method: (§1) The direct antitumor action of bisphosphonic acid POM ester and bisphosphonic acid was studied by comparison using U937.
(§2) The direct antitumor action of various bisphosphonic acid POM esters was studied by comparison using U937 and EJ-1. The measurement was performed according to Experimental Example 2 and Experimental Example 4.

For another test, the system named is EJ-1 cells. Briefly: EJ-1 cell growth inhibition (direct antitumor action, CellTiterGlo). The note with it: for IC50: EJ-1 (bladder cancer) growth inhibition, 4 days culture; for direct antitumor activity (in words): EJ-1 growth inhibition. Here is the method: as §1
The direct antitumor action of bisphosphonic acid POM ester derivatives and bisphosphonic acids was studied by comparison using EJ-1. It was performed in the same manner as in Experimental Example 1 except that EJ-1 was used as the cell to be used. For recovery of the cells, a conventional EDTA trypsin treatment was performed.
The direct antitumor action of bisphosphonic acid POM esters and bisphosphonic acids was studied by comparison using EJ-1. It was performed in the same manner as in Experimental Example 2 except that EJ-1 was used as the cell to be used. For recovery of the cells, a conventional EDTA trypsin treatment was performed.
as §2

For a further test, the system named is EJ-1 cells / γδ T cells. Put plainly: TNF-α production from γδ T cells stimulated by compound-pretreated EJ-1 cells (indirect antitumor action, ELISA). The note with it: for EC50: EJ-1 pretreated 4 hr with compound, 16 hr with γδ T cells, TNF-α ELISA, read-out: TNF-α50. Here is the method:
The indirect antitumor action of bisphosphonic acid POM esters and bisphosphonic acids was studied by comparison using EJ-1. In principle, EJ-1 is treated with a compound, washed, and reacted with γδ T cells, and the cytotoxic ability is studied by comparison, by quantifying TNF-α produced by γδ T cells during cell disordering. TNF-α is generally used as an index of γδ T cell induction ability and/or proliferative capacity, and γδ T cells are considered to be induced and/or proliferated in proportion to the TNF-α amount (Journal of Immunology, 154, 5986-5994 (1995)). Since the produced TNF-α is what is called a tumor necrosis factor, it is considered to have an action to lower proliferation of cancer cells or induce cell death.
Thereto was added a solution (500 μl) of compounds 3, 5, 6, 7, which are bisphosphonic acid POM ester derivatives, obtained by serially diluting 10 mM stock solution 10-fold from 20 μM, or a solution (500 μl) of bisphosphonic acid 10, 12, 13, 14 compound obtained by serially diluting 10-fold from 200 μM, and the cells were suspended well. These conical tubes were stood at 37° C. for 4 hr, and the cells were washed 3 times with 5 ml of culture medium. To these cells was added 500 μl of medium, and the cells were suspended well. […] The cell culture medium was suspended well, and the plate was centrifuged at 1,700 rpm, 4° C. for 2 min and the culture supernatant (150 μl) was taken and placed in another round-bottomed 96 well plate. The plate was frozen at −80° C. overnight, left standing at room temperature for 1 hr, stirred well and 100 μl thereof was subjected to ELISA of TNF-α. The content of TNF-α was calculated from the analytical curve of TNF-α. These were performed in triplicate, and a graph showing bisphosphonic acid POM ester derivative and the corresponding bisphosphonic acid as one pair was plotted. […] The results of bisphosphonic acid POM ester derivative are shown by -●-, and the results of bisphosphonic acid are shown by -◯-.
The indirect antitumor action of bisphosphonic acid POM esters and bisphosphonic acids was quantitatively studied by comparison using EJ-1. […] Thereto was added a solution (500 μl) of a bisphosphonic acid POM ester derivative obtained by serially diluting 10 mM stock solution 10-fold from 20 μM, or a bisphosphonic acid solution (500 μl) serially diluted 10-fold from 200 μM was added, and the cells were suspended well. These conical tubes were stood at 37° C. for 4 hr, and the cells were washed 3 times with 5 ml of culture medium. To these cells was added 500 μl of medium, and the cells were suspended well. […] The cell culture medium was suspended well, and the plate was centrifuged at 1,700 rpm, 4° C. for 2 min and the culture supernatant (150 μl) was taken and placed in another round-bottomed 96 well plate. The plate was frozen at −80° C. overnight, left standing at room temperature for 1 hr, stirred well and 100 μl thereof was subjected to ELISA of TNF-α. The content of TNF-α was calculated from the analytical curve of TNF-α. These were performed in triplicate, and a half of the concentration of compounds 1-7, which are bisphosphonic acid POM ester derivatives, and compounds 8-14, which are bisphosphonic acids, necessary for producing the maximum amount of TNF-α from γδ T cells was calculated as TNF-α50, and summarized in Table 6.
Therefore, the TNF-α50 value of various bisphosphonic acid POM ester derivatives was calculated. […] Thereto was added a solution (500 μl) of compounds 1-7 and 15-39, which are bisphosphonic acid POM ester derivatives, and compound 42, which is other bisphosphonic acid ester derivative, obtained by serially diluting 10 mM stock solution 10-fold from 20 μM, and the cells were suspended well. These conical tubes were stood at 37° C. for 4 hr, and the cells were washed 3 times with 5 ml of culture medium. To these cells was added 500 μl of medium, and the cells were suspended well. […]

Some results are limits rather than exact numbers.

Turning to `CC(C)(C)C(=O)OCOP(=O)(OCOC(=O)C(C)(C)C)C(CNc1ccc(-c2ccccc2)cn1)P(=O)(OCOC(=O)C(C)(C)C)OCOC(=O)C(C)(C)C` [Compound 19, tetrakispivaloyloxymethyl 2-(5-phenylpyridin-2-ylamino)ethylidene-1,1-bisphosphonate], the IC50 in the test with U937 cells came to 6.7 µM; with EJ-1 cells, 9.5 µM. Besides, the EC50 in the test with EJ-1 cells / γδ T cells was over 10 µM.

As to `Cc1cccc(NCC(P(=O)(OCOC(=O)C(C)(C)C)OCOC(=O)C(C)(C)C)P(=O)(OCOC(=O)C(C)(C)C)OCOC(=O)C(C)(C)C)n1` [Compound 20, tetrakispivaloyloxymethyl 2-(6-methylpyridin-2-ylamino)ethylidene-1,1-bisphosphonate], the 50% inhibitory concentration (IC50) with U937 cells is 6.9 µM; in the test with EJ-1 cells it was 16 µM. Besides, in the test with EJ-1 cells / γδ T cells, the EC50 came out at 3.7 µM.

For `CC(C)(C)C(=O)OCOP(=O)(OCOC(=O)C(C)(C)C)C(CNc1cccc(Br)n1)P(=O)(OCOC(=O)C(C)(C)C)OCOC(=O)C(C)(C)C` [Compound 21, tetrakispivaloyloxymethyl 2-(6-bromopyridin-2-ylamino)ethylidene-1,1-bisphosphonate], the concentration for half-maximal inhibition (IC50) came out at 6.1 µM in the test on U937 cells and 9 µM with EJ-1 cells. Further, the EC50 in the test with EJ-1 cells / γδ T cells is over 10 µM.

Consider `CCCCCCCCc1ccc(NCC(P(=O)(OCOC(=O)C(C)(C)C)OCOC(=O)C(C)(C)C)P(=O)(OCOC(=O)C(C)(C)C)OCOC(=O)C(C)(C)C)nc1` [Compound 22, tetrakispivaloyloxymethyl 2-(5-octanylpyridin-2-ylamino)ethylidene-1,1-bisphosphonate], for which the 50% inhibitory concentration (IC50) worked out at 3.4 µM with U937 cells and 3.7 µM with EJ-1 cells. For the same compound, the EC50 in the test on EJ-1 cells / γδ T cells turned out to be 4.8 µM.

As for `CCCCCCCCc1cccnc1NCC(P(=O)(OCOC(=O)C(C)(C)C)OCOC(=O)C(C)(C)C)P(=O)(OCOC(=O)C(C)(C)C)OCOC(=O)C(C)(C)C` [Compound 23, tetrakispivaloyloxymethyl 2-(3-octanylpyridin-2-ylamino)ethylidene-1,1-bisphosphonate], the half-inhibitory concentration (IC50) in the test with U937 cells stood at 3.5 µM; in the test with EJ-1 cells, 4.5 µM. Moreover, the EC50 in the test on EJ-1 cells / γδ T cells came out at 3.4 µM.

With `CCCCCCCCc1cccc(NCC(P(=O)(OCOC(=O)C(C)(C)C)OCOC(=O)C(C)(C)C)P(=O)(OCOC(=O)C(C)(C)C)OCOC(=O)C(C)(C)C)n1` [Compound 24, tetrakispivaloyloxymethyl 2-(6-octanylpyridin-2-ylamino)ethylidene-1,1-bisphosphonate], the half-maximal inhibitory concentration (IC50) in the test on U937 cells came to 3 µM; in the test with EJ-1 cells it was 6.3 µM. Also, the EC50 with EJ-1 cells / γδ T cells is over 10 µM.

In the case of `COc1ccc(-c2cccnc2NCC(P(=O)(OCOC(=O)C(C)(C)C)OCOC(=O)C(C)(C)C)P(=O)(OCOC(=O)C(C)(C)C)OCOC(=O)C(C)(C)C)cc1` [Compound 25, tetrakispivaloyloxymethyl 2-[3-(4-methoxyphenyl)pyridin-2-ylamino]ethylidene-1,1-bisphosphonate], the IC50 in the test with U937 cells amounted to 6.2 µM; in the test with EJ-1 cells it was 8.8 µM. Moreover, in the test on EJ-1 cells / γδ T cells, the EC50 is over 10 µM.

`CC(C)(C)C(=O)OCOP(=O)(OCOC(=O)C(C)(C)C)C(CNc1ncccc1-c1ccc(F)cc1)P(=O)(OCOC(=O)C(C)(C)C)OCOC(=O)C(C)(C)C` [Compound 26, tetrakispivaloyloxymethyl 2-[3-(4-fluorophenyl)pyridin-2-ylamino]ethylidene-1,1-bisphosphonate]: the IC50 in the test with U937 cells worked out at 7 µM; in the test on EJ-1 cells it was 8.7 µM. The EC50 in the test with EJ-1 cells / γδ T cells was over 10 µM.

As to `CC(C)(C)C(=O)OCOP(=O)(OCOC(=O)C(C)(C)C)C(CNc1ncccc1O)P(=O)(OCOC(=O)C(C)(C)C)OCOC(=O)C(C)(C)C` [Compound 27, tetrakispivaloyloxymethyl 2-(3-hydroxypyridin-2-ylamino)ethylidene-1,1-bisphosphonate], the concentration for half-maximal inhibition (IC50) in the test on U937 cells was 8.9 µM; in the test with EJ-1 cells, 13 µM. Also, the EC50 in the test with EJ-1 cells / γδ T cells is 4.6 µM.

Consider `CC(C)(C)C(=O)OCOP(=O)(OCOC(=O)C(C)(C)C)C(CNc1cc(Br)ccn1)P(=O)(OCOC(=O)C(C)(C)C)OCOC(=O)C(C)(C)C` [Compound 28, tetrakispivaloyloxymethyl 2-(4-bromopyridin-2-ylamino)ethylidene-1,1-bisphosphonate], for which the IC50 in the test on U937 cells was determined as 7.1 µM; with EJ-1 cells, 6 µM. The EC50 with EJ-1 cells / γδ T cells was 6.5 µM.

For the compound `CC(C)(C)C(=O)OCOP(=O)(OCOC(=O)C(C)(C)C)C(CNc1ccnc(Br)c1)P(=O)(OCOC(=O)C(C)(C)C)OCOC(=O)C(C)(C)C` [Compound 29, tetrakispivaloyloxymethyl 2-(2-bromopyridin-4-ylamino)ethylidene-1,1-bisphosphonate], the half-inhibitory concentration (IC50) in the test with U937 cells was found to be 6.6 µM; with EJ-1 cells, 12 µM. For the same compound, the EC50 in the test on EJ-1 cells / γδ T cells was over 10 µM.

Regarding `CC(C)(C)C(=O)OCOP(=O)(OCOC(=O)C(C)(C)C)C(CNc1ccc2ccccc2n1)P(=O)(OCOC(=O)C(C)(C)C)OCOC(=O)C(C)(C)C` [Compound 30, tetrakispivaloyloxymethyl 2-(quinolin-2-ylamino)ethylidene-1,1-bisphosphonate], the IC50 in the test on U937 cells turned out to be 6.6 µM; in the test on EJ-1 cells it was 10 µM. In the test on EJ-1 cells / γδ T cells, the EC50 is over 10 µM.

In the case of `CC(C)(C)C(=O)OCOP(=O)(OCOC(=O)C(C)(C)C)C(Cn1ccc2cccnc21)P(=O)(OCOC(=O)C(C)(C)C)OCOC(=O)C(C)(C)C` [Compound 31, tetrakispivaloyloxymethyl 2-(7-azaindol-1-yl)ethylidene-1,1-bisphosphonate], the concentration for half-maximal inhibition (IC50) in the test on U937 cells amounted to 2.2 µM; with EJ-1 cells it was 1.7 µM. The “direct antitumor activity (in words)” value in the test on U937 cells and with EJ-1 cells was “high activity” each time. Moreover, the EC50 in the test on EJ-1 cells / γδ T cells stood at 1.6 µM.

`CC(C)(C)C(=O)OCOP(=O)(OCOC(=O)C(C)(C)C)C(CNc1cc[nH]n1)P(=O)(OCOC(=O)C(C)(C)C)OCOC(=O)C(C)(C)C` [Compound 32, tetrakispivaloyloxymethyl 2-(pyrazol-3-ylamino) ethylidene-1,1-bisphosphonate]: the half-maximal inhibitory concentration (IC50) in the test on U937 cells is 6.3 µM; in the test with EJ-1 cells it was 12 µM. In addition, the EC50 with EJ-1 cells / γδ T cells was found to be 4.4 µM.

`Cc1csc(NCC(P(=O)(OCOC(=O)C(C)(C)C)OCOC(=O)C(C)(C)C)P(=O)(OCOC(=O)C(C)(C)C)OCOC(=O)C(C)(C)C)n1` [Compound 33, tetrakispivaloyloxymethyl 2-(4-methylthiazol-2-ylamino)ethylidene-1,1-bisphosphonate]: the IC50 in the test with U937 cells amounted to 5 µM; in the test on EJ-1 cells it was 4.2 µM. For the same compound, the EC50 with EJ-1 cells / γδ T cells turned out to be 3.6 µM.

With `Cc1cnc(NCC(P(=O)(OCOC(=O)C(C)(C)C)OCOC(=O)C(C)(C)C)P(=O)(OCOC(=O)C(C)(C)C)OCOC(=O)C(C)(C)C)s1` [Compound 34, tetrakispivaloyloxymethyl 2-(5-methylthiazol-2-ylamino)ethylidene-1,1-bisphosphonate], in the test with U937 cells, the 50% inhibitory concentration (IC50) is 2.5 µM and the “direct antitumor activity (in words)” value is recorded as “high activity”. In the test with EJ-1 cells, the IC50 was found to be 1.1 µM and the “direct antitumor activity (in words)” value is recorded as “high activity”. Besides, the EC50 in the test on EJ-1 cells / γδ T cells was determined as 0.063 µM. In the test with EJ-1 cells / γδ T cells (EJ-1 pretreated with compound, γδ T cells), the “TNF-α production induction activity (in words)” value is “high activity”.

Source of the values: patent US10532065B2, “Bisphosphonic acid derivative and application for same” (NAGASAKI UNIVERSITY, priority 2014, dated 2020).
